Results published in ChEMBL document CHEMBL1130602 (Bioorg Med Chem Lett, 1998).

Columns and labels:
[1] = test system: CHO-hD3; experiment: (§1) Compound was tested for stimulation of mitogenesis in CHO.hD3 cells in a dose dependent manner; format: functional, cell-based; details: Cricetulus griseus
[2] = target: D(1A) dopamine receptor (Homo sapiens, UniProt P21728); experiment: Compound was evaluated for binding affinity against Dopamine receptor D1 transfected in CHO cell membranes
[3] = target: T1, D(4) dopamine receptor (Homo sapiens, UniProt P21917); experiment: Compound was evaluated for binding affinity against human Dopamine receptor D4 transfected in CHO cell membranes
T1 sequence (P21917 whole entry): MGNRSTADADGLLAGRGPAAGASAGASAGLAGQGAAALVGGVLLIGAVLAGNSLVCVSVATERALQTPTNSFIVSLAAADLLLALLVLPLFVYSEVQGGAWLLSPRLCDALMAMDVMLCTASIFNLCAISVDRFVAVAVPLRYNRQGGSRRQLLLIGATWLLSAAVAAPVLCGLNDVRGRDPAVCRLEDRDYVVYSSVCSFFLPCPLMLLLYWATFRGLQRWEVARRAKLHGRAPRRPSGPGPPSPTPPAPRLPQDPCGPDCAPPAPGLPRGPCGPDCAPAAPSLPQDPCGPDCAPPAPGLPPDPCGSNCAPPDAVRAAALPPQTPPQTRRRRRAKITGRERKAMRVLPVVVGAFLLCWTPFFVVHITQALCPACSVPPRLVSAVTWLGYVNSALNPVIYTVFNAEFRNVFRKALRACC

[4] = target: D(1B) dopamine receptor (Homo sapiens, UniProt P21918); experiment: Compound was evaluated for binding affinity against human Dopamine receptor D5 transfected in CHO cell membranes
Chain of D(1B) dopamine receptor (P21918 whole entry): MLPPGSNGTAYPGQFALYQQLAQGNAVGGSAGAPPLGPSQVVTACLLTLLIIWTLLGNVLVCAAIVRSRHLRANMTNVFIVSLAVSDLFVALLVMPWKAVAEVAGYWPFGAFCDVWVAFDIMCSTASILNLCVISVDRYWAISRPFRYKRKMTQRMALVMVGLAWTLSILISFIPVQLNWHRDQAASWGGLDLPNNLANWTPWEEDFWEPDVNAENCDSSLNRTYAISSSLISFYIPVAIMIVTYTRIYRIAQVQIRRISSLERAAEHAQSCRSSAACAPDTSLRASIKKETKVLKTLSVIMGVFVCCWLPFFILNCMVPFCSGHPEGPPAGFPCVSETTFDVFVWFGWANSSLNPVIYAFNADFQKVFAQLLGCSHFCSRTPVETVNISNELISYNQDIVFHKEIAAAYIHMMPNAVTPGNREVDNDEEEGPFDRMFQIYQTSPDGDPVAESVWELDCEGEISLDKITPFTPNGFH

[5] = target: D(3) dopamine receptor (Homo sapiens, UniProt P35462); experiment: Compound was evaluated for binding affinity against human Dopamine receptor D3 transfected in CHO cell membranes to stimulate [3H]thymidine uptake
Chain of D(3) dopamine receptor (P35462 whole entry): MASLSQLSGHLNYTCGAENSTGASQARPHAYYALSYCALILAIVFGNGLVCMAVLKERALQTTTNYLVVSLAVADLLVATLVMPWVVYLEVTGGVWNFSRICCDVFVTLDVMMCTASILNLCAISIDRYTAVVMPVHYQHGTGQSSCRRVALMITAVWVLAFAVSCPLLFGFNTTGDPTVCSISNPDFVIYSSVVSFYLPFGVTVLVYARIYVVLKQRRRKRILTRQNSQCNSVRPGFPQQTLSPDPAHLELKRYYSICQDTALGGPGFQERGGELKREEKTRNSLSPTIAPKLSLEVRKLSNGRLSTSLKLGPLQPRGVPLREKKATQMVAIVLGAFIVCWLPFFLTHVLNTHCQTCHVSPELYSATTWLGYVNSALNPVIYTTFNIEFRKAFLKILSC

[6] = target: Serotonin 2 (5-HT2) receptor (Rattus norvegicus, UniProt P30994+P08909+P14842); experiment: Compound was evaluated for binding affinity against 5-hydroxytryptamine 2 receptor from rat; format: protein assay
[7] = target: T2, Adrenergic receptor alpha-1 (Rattus norvegicus, UniProt P15823+P23944+P43140); experiment: Compound was evaluated for binding affinity against Alpha-1 adrenergic receptor from rat; format: protein assay
T2 sequence (P15823 whole entry): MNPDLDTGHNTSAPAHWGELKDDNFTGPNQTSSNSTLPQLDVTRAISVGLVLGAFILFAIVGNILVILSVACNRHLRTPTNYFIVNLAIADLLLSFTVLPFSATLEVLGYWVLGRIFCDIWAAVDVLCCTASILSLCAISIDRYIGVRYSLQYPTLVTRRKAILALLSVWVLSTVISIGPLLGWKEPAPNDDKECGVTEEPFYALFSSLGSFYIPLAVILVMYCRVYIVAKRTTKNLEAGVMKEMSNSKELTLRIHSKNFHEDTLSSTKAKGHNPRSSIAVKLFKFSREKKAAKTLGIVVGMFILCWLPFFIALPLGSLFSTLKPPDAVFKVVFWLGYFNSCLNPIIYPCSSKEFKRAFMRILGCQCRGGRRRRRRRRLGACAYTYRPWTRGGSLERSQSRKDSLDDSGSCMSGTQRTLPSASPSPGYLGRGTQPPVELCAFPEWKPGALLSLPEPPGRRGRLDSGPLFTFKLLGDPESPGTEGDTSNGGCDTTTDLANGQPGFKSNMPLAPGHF
T2 sequence (P23944 whole entry): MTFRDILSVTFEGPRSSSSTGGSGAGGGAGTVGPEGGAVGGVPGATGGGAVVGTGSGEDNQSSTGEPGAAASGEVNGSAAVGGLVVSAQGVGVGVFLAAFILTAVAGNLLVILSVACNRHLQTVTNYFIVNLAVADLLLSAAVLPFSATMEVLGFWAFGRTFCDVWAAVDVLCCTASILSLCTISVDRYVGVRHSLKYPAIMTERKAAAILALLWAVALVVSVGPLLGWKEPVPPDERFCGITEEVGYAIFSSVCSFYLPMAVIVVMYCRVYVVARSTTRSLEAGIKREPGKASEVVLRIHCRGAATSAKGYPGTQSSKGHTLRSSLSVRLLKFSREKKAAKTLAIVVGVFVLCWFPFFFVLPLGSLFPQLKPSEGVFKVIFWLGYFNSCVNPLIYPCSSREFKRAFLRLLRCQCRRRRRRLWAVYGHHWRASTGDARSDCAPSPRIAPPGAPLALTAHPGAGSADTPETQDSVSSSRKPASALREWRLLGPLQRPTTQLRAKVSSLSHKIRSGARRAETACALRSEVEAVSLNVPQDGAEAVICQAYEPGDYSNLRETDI
T2 sequence (P43140 whole entry): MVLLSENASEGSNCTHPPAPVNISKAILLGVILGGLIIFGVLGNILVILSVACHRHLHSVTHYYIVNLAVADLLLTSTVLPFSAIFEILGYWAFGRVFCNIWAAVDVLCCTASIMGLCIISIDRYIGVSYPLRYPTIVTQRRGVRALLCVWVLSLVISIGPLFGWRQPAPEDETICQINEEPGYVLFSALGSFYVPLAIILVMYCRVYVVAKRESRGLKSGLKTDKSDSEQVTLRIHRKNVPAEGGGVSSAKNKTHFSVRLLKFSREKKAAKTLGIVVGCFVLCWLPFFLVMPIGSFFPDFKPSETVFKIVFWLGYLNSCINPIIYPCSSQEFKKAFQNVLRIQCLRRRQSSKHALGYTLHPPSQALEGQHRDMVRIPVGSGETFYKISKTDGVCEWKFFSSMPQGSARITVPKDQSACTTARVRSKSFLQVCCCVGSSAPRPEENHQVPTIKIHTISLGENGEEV

[8] = test system: CHO; experiment: as §1; format: functional, cell-based; details: Cricetulus griseus
[9] = target: T1, D(4) dopamine receptor; experiment: Affinity against D4 receptor was evaluated
[10] = target: D(2) dopamine receptor (Homo sapiens) (UniProt P14416); experiment: Selectivity ratio of Ki of D2 receptor to that of D3 receptor
Chain of D(2) dopamine receptor (Homo sapiens) (P14416 whole entry): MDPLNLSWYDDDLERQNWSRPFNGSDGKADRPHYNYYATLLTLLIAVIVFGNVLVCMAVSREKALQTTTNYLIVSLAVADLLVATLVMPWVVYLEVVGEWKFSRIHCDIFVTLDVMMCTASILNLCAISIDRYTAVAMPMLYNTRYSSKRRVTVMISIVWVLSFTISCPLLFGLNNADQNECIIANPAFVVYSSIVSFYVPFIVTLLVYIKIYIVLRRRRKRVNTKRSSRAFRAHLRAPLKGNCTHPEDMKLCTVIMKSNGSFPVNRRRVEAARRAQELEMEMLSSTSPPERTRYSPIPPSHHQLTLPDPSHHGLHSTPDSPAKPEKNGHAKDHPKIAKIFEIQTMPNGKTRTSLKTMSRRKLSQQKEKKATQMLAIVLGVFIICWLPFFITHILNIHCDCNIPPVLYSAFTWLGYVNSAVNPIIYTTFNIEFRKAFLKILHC

Chain of D(1A) dopamine receptor (P21728 whole entry): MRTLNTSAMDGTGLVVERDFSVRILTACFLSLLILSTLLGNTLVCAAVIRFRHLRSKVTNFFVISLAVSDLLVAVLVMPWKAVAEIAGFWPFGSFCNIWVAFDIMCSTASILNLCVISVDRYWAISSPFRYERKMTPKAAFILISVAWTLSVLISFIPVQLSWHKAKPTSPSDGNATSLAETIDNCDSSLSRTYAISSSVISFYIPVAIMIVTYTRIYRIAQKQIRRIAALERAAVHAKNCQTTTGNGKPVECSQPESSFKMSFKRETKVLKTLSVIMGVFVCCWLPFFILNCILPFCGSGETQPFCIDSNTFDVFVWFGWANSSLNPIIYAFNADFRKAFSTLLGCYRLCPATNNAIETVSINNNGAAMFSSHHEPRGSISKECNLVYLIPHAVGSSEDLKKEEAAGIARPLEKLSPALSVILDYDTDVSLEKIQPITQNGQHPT

SMILES | IC50 [1] | Ki [2] | Ki [3] | Ki [4] | Ki [6] | Ki [7] | also measured
O=C(CCCN1CCC(O)(c2ccc(Cl)cc2)CC1)c1ccc(F)cc1 [HALOPERIDOL] | 8.8 nM | – | – | – | – | – | –
O=C(NCCCCN1CCN(c2cccc(Cl)c2Cl)CC1)c1ccc2c(c1)-c1ccccc1-2 | – | > 10 µM | > 5 µM | > 10 µM | 125 nM | 547 nM | Ki [5]: 0.9 nM; IC50 [8]: 6.8 nM
COc1c(C(=O)NCCN2CCN(c3cccc(Cl)c3Cl)CC2)cc(Br)c2ccccc12 | – | – | – | – | – | – | Ki [9]: 65 nM
CCCCN1CCCC1CNC(=O)c1cc(C#N)c2ccccc2c1OC (stereo unspecified) | – | – | – | – | – | – | Ratio [10]: 10
O=C(NCCCCN1CCN(c2cccc(Cl)c2Cl)CC1)c1ccc2c(c1)Cc1ccccc1-2 | 5 nM | > 10 µM | > 5 µM | > 10 µM | 223 nM | 642 nM | –
